Laboratory results from patent US11136409B2, “Compositions and methods for identification, assessment, prevention, and treatment of AML using USP10 biomarkers and modulators” (Dana-Farber Cancer Institute, Inc., priority 2016, dated 2021).
Read-outs that look alike come from different tables or passages of the source.

Tests used:
PBMCs = test: Treatment of PBMCs from healthy donors with USP10-targeting inhibitors; type: cell-based, human
Text: (§1) Nomo-1, P31-FUJ, and NB4 were obtained from Dr. Gary Gilliland. MV4, 11 cells were obtained from Dr. Anthony Letai. Hel, K562, THP, U937, TF-1 and K052 cells were purchased from the American Type Culture Collection (ATCC) (Manassas, Va., USA). […] Cell lines were submitted for cell line authentication and were authenticated within 6 months of manuscript preparation through cell line short tandem repeat (STR) profiling (DDC Medical, Fairfield, Ohio and Molecular Diagnostics Laboratory, Dana Farber Cancer Institute). […] PBMCs were generously provided by Dr. Steven Treon and Dr. Guang Yang.
(§2) The CellTiter-Glo® assay (Promega, Madison, Wis.) was used for proliferation studies and carried out according to manufacturer instructions. Cell viability is reported as percentage of control (untreated) cells, and error bars represent the standard error of the mean for each data point.

K562 = test: Anti-proliferation, 24 hr treatment (CellTiter-Glo); type: cell-based, human; conditions: read-out: Anti-proliferation IC50
Text: as §1, §2

U937 = test: as above; type: cell-based, human; conditions: read-out: Anti-proliferation IC50
Text: as §1, §2

K052 = test: as above; type: cell-based, human; conditions: read-out: Anti-proliferation IC50
Text: as §1, §2

NOMO-1 = test: as above; type: cell-based, human; conditions: read-out: Anti-proliferation IC50
Text: as §1, §2

P31 = test: as above; type: cell-based, human; conditions: read-out: Anti-proliferation IC50
Text: as §1, §2

NB4-luc+ = test: as above; type: cell-based, human; conditions: read-out: Anti-proliferation IC50
Text: as §1, §2

OCI-AML5 = test: as above; type: cell-based, human; conditions: read-out: Anti-proliferation IC50
Text: as §1, §2

MOLM14 = test: as above; type: cell-based, human; conditions: read-out: Anti-proliferation IC50
Text: as §1, §2

HEL = test: as above; type: cell-based, human; conditions: read-out: Anti-proliferation IC50
Text: as §1, §2

MOLM13-luc+ = test: as above; type: cell-based, human; conditions: read-out: Anti-proliferation IC50
Text: as §1, §2

MV4,11 = test: as above; type: cell-based, human; conditions: read-out: Anti-proliferation IC50
Text: as §1, §2

TF-1 = test: as above; type: cell-based, human; conditions: read-out: Anti-proliferation IC50
Text: as §1, §2

[1] = biological target: T1, human USP10 (residues 376-798) (Homo sapiens, UniProt Q14694); test: In vitro USP10 activity assay (Ubiquitin-AMC); type: biochemical; conditions: biochemical assay, FIG. 13B
T1 construct: A construct of human USP10 covering residues 376-798 in the pET28a vector; His-tag (cleaved yes); made in house; host or cells: E. coli BL21 (DE3)

USP7 = USP7 (Homo sapiens, UniProt Q93009); test: USP7 IC50 of HBX19818 analogs (Table 9); type: biochemical; conditions: read-out: USP7 IC50 +/− SEM
[2] = 24 hr assay, PBMC#1, read-out: IC50 (+/−S.D.) PBMC#1
[3] = 24 hr assay, PBMC#2, read-out: IC50 (+/−S.D.) PBMC#2
[4] = 72 hr assay, PBMC#1, read-out: IC50 (+/−S.D.) PBMC#1
[5] = 72 hr assay, PBMC#2, read-out: IC50 (+/−S.D.) PBMC#2
[6] = 24 hr treatment, K562 (FLT3 wt or null)
[7] = 24 hr treatment, U937 (FLT3 wt or null)
[8] = 24 hr treatment, K052 (FLT3 wt or null)
[9] = 24 hr treatment, NOMO-1 (FLT3 wt or null)
[10] = 24 hr treatment, P31 (FLT3 wt or null)
[11] = 24 hr treatment, NB4-luc+ (FLT3 wt or null)
[12] = 24 hr treatment, OCI-AML5 (FLT3 wt or null)
[13] = 24 hr treatment, MOLM14 (FLT3-ITD)
[14] = 24 hr treatment, HEL (FLT3 wt or null)
[15] = 24 hr treatment, MOLM13-luc+ (FLT3-ITD)
[16] = 24 hr treatment, MV4,11 (FLT3-ITD)
[17] = 24 hr treatment, TF-1 (FLT3 null)

T1 sequence (Q14694 376-798): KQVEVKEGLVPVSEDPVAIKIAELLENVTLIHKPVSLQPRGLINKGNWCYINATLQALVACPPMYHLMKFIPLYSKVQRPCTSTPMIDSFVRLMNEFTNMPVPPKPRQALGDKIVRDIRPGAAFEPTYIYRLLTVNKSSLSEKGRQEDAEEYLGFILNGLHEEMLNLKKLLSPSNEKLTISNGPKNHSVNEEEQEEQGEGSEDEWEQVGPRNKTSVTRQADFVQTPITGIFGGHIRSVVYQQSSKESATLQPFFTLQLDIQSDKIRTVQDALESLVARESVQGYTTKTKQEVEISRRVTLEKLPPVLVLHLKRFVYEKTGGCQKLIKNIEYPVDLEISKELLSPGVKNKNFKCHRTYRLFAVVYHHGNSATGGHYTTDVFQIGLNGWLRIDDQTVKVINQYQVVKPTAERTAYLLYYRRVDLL
USP7, sequence (Q93009 whole entry): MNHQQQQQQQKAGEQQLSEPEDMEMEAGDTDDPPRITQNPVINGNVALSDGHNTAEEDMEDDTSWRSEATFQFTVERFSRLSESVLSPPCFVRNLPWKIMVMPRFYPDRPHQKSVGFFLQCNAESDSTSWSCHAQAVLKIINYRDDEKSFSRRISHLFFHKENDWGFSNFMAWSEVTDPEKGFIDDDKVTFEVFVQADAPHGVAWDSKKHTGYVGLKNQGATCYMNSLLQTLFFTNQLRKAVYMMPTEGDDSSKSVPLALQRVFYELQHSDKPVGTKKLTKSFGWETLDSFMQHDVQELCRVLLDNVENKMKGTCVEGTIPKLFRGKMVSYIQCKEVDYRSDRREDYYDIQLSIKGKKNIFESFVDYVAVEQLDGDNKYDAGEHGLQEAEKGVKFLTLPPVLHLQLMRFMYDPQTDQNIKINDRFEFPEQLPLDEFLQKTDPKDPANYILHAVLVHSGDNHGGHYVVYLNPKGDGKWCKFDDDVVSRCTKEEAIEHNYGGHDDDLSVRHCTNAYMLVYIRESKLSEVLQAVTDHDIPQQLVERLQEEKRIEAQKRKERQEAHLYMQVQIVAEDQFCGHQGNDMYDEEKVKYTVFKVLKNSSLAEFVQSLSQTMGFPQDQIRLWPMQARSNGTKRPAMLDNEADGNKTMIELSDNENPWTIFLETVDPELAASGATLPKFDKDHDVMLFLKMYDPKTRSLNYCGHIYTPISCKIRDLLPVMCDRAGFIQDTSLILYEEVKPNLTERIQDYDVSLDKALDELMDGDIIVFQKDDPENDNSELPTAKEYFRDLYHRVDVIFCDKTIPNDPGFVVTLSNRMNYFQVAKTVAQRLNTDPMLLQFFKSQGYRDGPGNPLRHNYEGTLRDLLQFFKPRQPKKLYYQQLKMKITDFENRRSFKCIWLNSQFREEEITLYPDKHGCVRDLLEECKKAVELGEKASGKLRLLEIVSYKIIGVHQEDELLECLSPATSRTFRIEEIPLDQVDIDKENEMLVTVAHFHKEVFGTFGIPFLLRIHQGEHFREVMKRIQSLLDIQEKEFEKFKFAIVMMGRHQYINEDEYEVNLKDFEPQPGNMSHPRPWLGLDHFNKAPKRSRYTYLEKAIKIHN

| Structure (SMILES) | USP10 inhibition compared with HBX19818 [1] | IC50 (USP7) [µM] | IC50 (PBMCs; [2]) [µM] | IC50 (PBMCs; [3]) [µM] | IC50 (PBMCs; [4]) [µM] | IC50 (PBMCs; [5]) [µM] | IC50 (K562; [6]) [µM] | IC50 (U937; [7]) [µM] | IC50 (K052; [8]) [µM] | IC50 (NOMO-1; [9]) [µM] | IC50 (P31; [10]) [µM] | IC50 (NB4-luc+; [11]) [µM] | IC50 (OCI-AML5; [12]) [µM] | IC50 (MOLM14; [13]) [µM] | IC50 (HEL; [14]) [µM] | IC50 (MOLM13-luc+; [15]) [µM] | IC50 (MV4,11; [16]) [µM] | IC50 (TF-1; [17]) [µM] | further results |
| --- | --- | --- | --- | --- | --- | --- | --- | --- | --- | --- | --- | --- | --- | --- | --- | --- | --- | --- | --- |
| CN(CCCNC(=O)c1ccc2nc3c(c(Cl)c2c1)CCCC3)Cc1ccccc1 [HBX19818, reference compound] | – | – | – | – | – | – | – | – | – | – | – | – | – | – | – | – | – | – | IC50 (PBMCs; Homo sapiens, PBMC, 24 h, read-out: IC50 (+/−S.D.) PBMC#1): 25.5 µM; IC50 (PBMCs; Homo sapiens, PBMC, 24 h, read-out: IC50 (+/−S.D.) PBMC#2): 24.1 µM; IC50 (PBMCs; Homo sapiens, PBMC, 72 h, read-out: IC50 (+/−S.D.) PBMC#1): 12.4 µM; IC50 (PBMCs; Homo sapiens, PBMC, 72 h, read-out: IC50 (+/−S.D.) PBMC#2): 7.3 µM; IC50 (K562; Homo sapiens, K562, 24 h): 18.5 µM; IC50 (U937; Homo sapiens, U-937, 24 h): 20.7 µM; IC50 (K052; Homo sapiens, K052, 24 h): 16.6 µM; IC50 (NOMO-1; Homo sapiens, NOMO-1, 24 h): 16.1 µM; IC50 (P31; Homo sapiens, 24 h): 18.2 µM; IC50 (NB4-luc+; Homo sapiens, 24 h): 16.4 µM; IC50 (OCI-AML5; Homo sapiens, OCI-AML-5, 24 h): 17.9 µM; IC50 (MOLM14; Homo sapiens, MOLM-14, 24 h): 9.6 µM; IC50 (HEL; Homo sapiens, HEL, 24 h): 25.7 µM; IC50 (MOLM13-luc+; Homo sapiens, 24 h): 4.4 µM; IC50 (MV4,11; Homo sapiens, MV4-11, 24 h): 8.1 µM; IC50 (TF-1; Homo sapiens, TF-1, 24 h): 12.8 µM |
| O=C(NCCCN1CCN(Cc2ccccc2)CC1)c1ccc2nc3c(c(Cl)c2c1)CCCC3 [C598-0563] | comparably to HBX19818 | 50 | 22.9 | 44.4 | 15.6 | 7.9 | 15.9 | 13.7 | 14.5 | 10.7 | 10.6 | 13.6 | 17 | 9.9 | 19.6 | 8.8 | 9.7 | 10 | – |
| CCCN(CCC)CCCNC(=O)c1ccc2c(Cl)c3c(nc2c1)CCCC3 [C598-0466] | more potent | 3.6 | 10.5 | 10.5 | 4.8 | 3.1 | 13.3 | 12.9 | 11.6 | 8.3 | 13.9 | 10.2 | 8.6 | 5.2 | 16.8 | 2.9 | 4.1 | 10.7 | – |
| CCN(CCCNC(=O)c1ccc2nc3c(c(Cl)c2c1)CCC3)Cc1ccccc1 [C673-0105] | comparably to HBX19818 | > 100 | 17.2 | 17.4 | 10 | 7.3 | 23.7 | 16.2 | 23.5 | 12.7 | 29 | 24.5 | 19.5 | 10.1 | 34.4 | 7.9 | 7.5 | 12.5 | – |
